Laboratory results as given in ChEMBL document CHEMBL1201862, “PubChem BioAssay data set” (2004).
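Interpolation was linear, between the two tested concentrations surrounding the appropriate level; five concentrations were tested over 48 hours in 96-well plates. GI50: concentration for 50% inhibition of growth.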 The source made the active and inactive calls. Cut-off read from the data, not from the text of the source: active = GI50 up to about 1.1 µM and inactive = higher.

Columns and labels:
Assay in all cases: NCI-60 cell line screen, 48 h
SK-OV-3 = system: SK-OV-3
MDA-MB-231 = system: MDA-MB-231
U-251 = system: U-251
SF-268 = system: SF-268
NCI-H522 = system: NCI-H522
UACC-257 = system: UACC-257
M14 = system: M14
RPMI-8226 = system: RPMI-8226
SK-MEL-5 = system: SK-MEL-5
SF-539 = system: SF-539
NCI-H23 = system: NCI-H23
RXF 393 = system: RXF 393
UACC-62 = system: UACC-62
A549 = system: A549
ACHN = system: ACHN
OVCAR-5 = system: OVCAR-5
A498 = system: A498
HCC 2998 = system: HCC 2998
Hs-578T = system: Hs-578T

Row | SMILES | GI50 (SK-OV-3) | GI50 (MDA-MB-231) | GI50 (U-251) | GI50 (SF-268) | GI50 (NCI-H522) | GI50 (UACC-257) | GI50 (M14) | GI50 (RPMI-8226) | GI50 (SK-MEL-5) | GI50 (SF-539) | GI50 (NCI-H23) | GI50 (RXF 393) | GI50 (UACC-62) | GI50 (A549) | GI50 (ACHN) | GI50 (OVCAR-5) | GI50 (A498) | GI50 (HCC 2998) | GI50 (Hs-578T)
1 | CN1c2ccccc2C2c3c(O)ccc(O)c3C=C([N+](=O)[O-])C21 (centres undefined) | 3.72 µM (inactive) | 0.656 µM (active) | 0.65 µM (active) | 0.388 µM (active) | 0.0621 µM (active) | 0.19 µM (active) | 0.513 µM (active) | 1.11 µM (active) | 0.548 µM (active) | 1.44 µM (inactive) | 1.69 µM (inactive) | 3.91 µM (inactive) | 0.957 µM (active) | 1.56 µM (inactive) | 0.679 µM (active) | 1.83 µM (inactive) | 1.79 µM (inactive) | 0.716 µM (active) | 
2 | CCN(CC)c1nc(N(C)C)c2ccc(OC)cc2n1 | 13.7 µM (inactive) | 17.1 µM (inactive) | 20.2 µM (inactive) | 32.3 µM (inactive) | 11.7 µM (inactive) | 11.5 µM (inactive) | 8.75 µM (inactive) | 10.1 µM (inactive) | 11.6 µM (inactive) | 16.7 µM (inactive) | 15.1 µM (inactive) | 13.6 µM (inactive) | 6.65 µM (inactive) | 19.7 µM (inactive) | 12.5 µM (inactive) | 16.7 µM (inactive) |  | 11.6 µM (inactive) | 39.9 µM (inactive)
3 | CCCCC(=C=C(C)CO)C1CCCN1C(=O)OC(C)(C)C (centres undefined) | 24.5 µM (inactive) | 17 µM (inactive) | 17.1 µM (inactive) | 17.5 µM (inactive) | 14.5 µM (inactive) | 16 µM (inactive) | 18.5 µM (inactive) | 13.9 µM (inactive) | 16.1 µM (inactive) | 16.9 µM (inactive) | 19 µM (inactive) | 15.2 µM (inactive) | 13.6 µM (inactive) | 19 µM (inactive) | 24.8 µM (inactive) | 21 µM (inactive) |  | 8.02 µM (inactive) | 13.8 µM (inactive)
4 | C=CCC1(O)CC(n2cc(C)c(=O)[nH]c2=O)OC1CO[Si](C)(C)C(C)(C)C (centres undefined) |  | 64.6 µM (inactive) | 75.3 µM (inactive) |  |  | 52.4 µM (inactive) | 46.7 µM (inactive) | 37.4 µM (inactive) | 34.4 µM (inactive) | 53.5 µM (inactive) | 44 µM (inactive) | 29 µM (inactive) | 35.9 µM (inactive) | 35.5 µM (inactive) | 45.6 µM (inactive) | 61.9 µM (inactive) | 37.2 µM (inactive) | 24.5 µM (inactive) | 
5 | CC(=O)[C@@]1(C)CC2(CCN(C)CC2)OC1C (some centres undefined) | > 100 µM (inactive) | > 100 µM (inactive) | > 100 µM (inactive) | > 100 µM (inactive) | > 100 µM (inactive) | > 100 µM (inactive) | > 100 µM (inactive) | > 100 µM (inactive) | > 100 µM (inactive) | > 100 µM (inactive) | > 100 µM (inactive) | > 100 µM (inactive) |  | > 100 µM (inactive) | > 100 µM (inactive) | > 100 µM (inactive) | > 100 µM (inactive) |  | 
6 | O=C1NC(N2CCOCC2)=N/C1=C\c1ccccc1 | > 100 µM (inactive) | > 100 µM (inactive) | > 100 µM (inactive) | > 100 µM (inactive) | > 100 µM (inactive) | > 100 µM (inactive) | > 100 µM (inactive) | > 100 µM (inactive) | > 100 µM (inactive) | > 100 µM (inactive) | > 100 µM (inactive) |  | > 100 µM (inactive) | > 100 µM (inactive) | > 100 µM (inactive) | > 100 µM (inactive) |  | > 100 µM (inactive) | > 100 µM (inactive)
7 | COc1cc(C2c3cc(O)c(OC)cc3C3OCC2C3CO)ccc1O (centres undefined) | > 100 µM (inactive) | > 100 µM (inactive) | > 100 µM (inactive) | > 100 µM (inactive) | > 100 µM (inactive) |  | > 100 µM (inactive) | > 100 µM (inactive) | > 100 µM (inactive) | > 100 µM (inactive) | > 100 µM (inactive) | > 100 µM (inactive) | > 100 µM (inactive) | > 100 µM (inactive) | > 100 µM (inactive) | > 100 µM (inactive) | > 100 µM (inactive) | > 100 µM (inactive) | 
8 | CC(ON(C(c1ccccc1)C(C)C)C(C)(C)C)c1ccccc1 (centres undefined) | 39.3 µM (inactive) | 21.1 µM (inactive) | 17 µM (inactive) | 24.4 µM (inactive) | 26.5 µM (inactive) | 17.2 µM (inactive) | 22.7 µM (inactive) | 29.5 µM (inactive) | 14.4 µM (inactive) | 21.6 µM (inactive) | 18.7 µM (inactive) | 16.3 µM (inactive) | 15.9 µM (inactive) | 29.6 µM (inactive) | 15.8 µM (inactive) | 16 µM (inactive) |  | 17.3 µM (inactive) | 29 µM (inactive)
9 | COC(=O)/C=C(\C(=O)OC)C1C(=O)Oc2c(C)c(=O)c3ccccc3n21 (centres undefined) | > 100 µM (inactive) | > 100 µM (inactive) | > 100 µM (inactive) | > 100 µM (inactive) | > 100 µM (inactive) | > 100 µM (inactive) | > 100 µM (inactive) | > 100 µM (inactive) | > 100 µM (inactive) | > 100 µM (inactive) | > 100 µM (inactive) | > 100 µM (inactive) | > 100 µM (inactive) | > 100 µM (inactive) |  |  |  |  | > 100 µM (inactive)
10 | Cc1c(-c2ccccc2)[nH]c2ccc(Cl)cc2c1=O | 21.7 µM (inactive) | 19 µM (inactive) | 22.9 µM (inactive) | 30.6 µM (inactive) | 21.3 µM (inactive) | 27.8 µM (inactive) | 34.7 µM (inactive) | 15.2 µM (inactive) | 13.3 µM (inactive) | 22.2 µM (inactive) | 23.4 µM (inactive) | 20 µM (inactive) | 34.8 µM (inactive) | 0.0232 µM (active) | 29 µM (inactive) | 61.9 µM (inactive) |  | 23.2 µM (inactive) | 30.5 µM (inactive)
11 | Cc1c(O)c(OC2OC(CO)C(O)C(O)C2O)cc2c1CC[C@@H]1C2(C)C(=O)C[C@]2(C)[C@@H]([C@@](C)(O)C3CCC(C)(C)O3)[C@H](O)C[C@@]12C (some centres undefined) | > 100 µM (inactive) | > 100 µM (inactive) | > 100 µM (inactive) | > 100 µM (inactive) | > 100 µM (inactive) | > 100 µM (inactive) | > 100 µM (inactive) |  | > 100 µM (inactive) | > 100 µM (inactive) | > 100 µM (inactive) | > 100 µM (inactive) | > 100 µM (inactive) | > 100 µM (inactive) | > 100 µM (inactive) | > 100 µM (inactive) | > 100 µM (inactive) | > 100 µM (inactive) | 
12 | O=C1OC2(c3ccccc31)c1cc(I)c(O)c(I)c1Oc1c2cc(I)c(O)c1I [ERYTHROSINE] | > 100 µM (inactive) | > 100 µM (inactive) | 92.3 µM (inactive) | > 100 µM (inactive) | 19.3 µM (inactive) | > 100 µM (inactive) | 68.2 µM (inactive) | > 100 µM (inactive) | > 100 µM (inactive) | > 100 µM (inactive) | 70 µM (inactive) | 5.79 µM (inactive) | 75.9 µM (inactive) | > 100 µM (inactive) | 96.8 µM (inactive) | > 100 µM (inactive) |  |  | 49.1 µM (inactive)
